In patent US20210401862A1, “METHODS FOR MODULATING CORTICOSTERONE LEVELS IN PSYCHOLOGICALLY STRESSED INDIVIDUALS” (ABBOTT LABORATORIES, priority 2012, published 2021):

System: early stressed maternally deprived mice
Test: Serum stress hormones after acute restraint stress in maternally separated (early stressed) mice fed experimental diets
Assay type: in vivo, C57BL/6 mice
Procedure: In this Example, the effects of 2-fucosyl-lactose on the production of serum corticosterone in early stressed maternally deprived mice were analyzed. Initially, mice pups were early stressed using a model of maternal separation. Particularly, one day after delivery, C57BL/6 mice pups were sexed and grouped as sham (non-stressed Control group) or maternally separated (MS—stressed group) animals. From day 2 until day 14 after delivery, the MS pups were removed from the dam and kept isolated for a period of 4 hours per day, typically, from 10:00 AM to 2:00 PM, in a thermostatted cup. During the same time period, pups from the sham group were daily handled for a period of five minutes in order to receive the same grade of habituation to a researcher's hands as the MS pups. Each dam had litters of 4 males and 2 females. Females were allowed to stay with the mother, while males were maternally deprived in order to avoid stressing the dam by removing all of the pups. Additionally, pups from the MS group were prematurely weaned, and thus permanently removed from the dam, at postnatal day 17, whereas sham pups were not weaned until postnatal day 21. At postnatal day 22, all pups in the MS group were pooled and four experimental groups were made before starting nutritional intervention. [table] At the nutritional intervention stage, mice were fed experimental diets for a period of eight weeks. After eight weeks, blood samples were taken from facial veins of the mice in order to measure basal stress hormones (i.e., corticosterone, adrenocorticotropic hormone (ACTH), and melatonin). Stress hormones were measured using luminex technology using a multiplex commercial kit (commercially available from Millipore Corporation, Billerica, Mass.) Seven days later, mice were submitted to an acute stress by restraint protocol. Particularly, mice were placed into a multi-drilled 50-ml centrifuge tube for 20 minutes. After this time, mice were extracted from the tube, and again, blood samples were taken in order to measure serum stress hormones immediately after the acute stressful event (i.e., restraint).

[1] = MS-stressed mice, supplemented diet about 7 mg/mouse/day, post-restraint, stated for any of the experimental groups

2-fucosyl-lactose [2-fucosyllactose] was tested, and the “serum corticosterone levels in response to restraint, compared with MS mice on the control diet” value (AIN93G diet with about 7 mg/mouse/day for eight weeks, blood taken immediately after 20 minutes restraint, Group C vs MS control Group D) was “significantly lower”, the “serum corticosterone levels in response to restraint, compared with normal sham mice” value (MS-stressed mice, AIN93G diet with about 7 mg/mouse/day for eight weeks, blood taken immediately after 20 minutes restraint, Group C vs sham Group E) was “equal that of the normal sham mice” and the “ACTH serum levels post-restraint” value [1] was “no effects”. The “melatonin serum levels post-restraint” value [1] was “no effects”.
